Source: patent US20180237745A1, “METHOD FOR CONTROLLING DIFFERENTIATION OF STEM CELLS” (GUANGZHOU INSTITUTES OF BIOMEDICINE AND HEALTH, CHINESE …, priority 2015, published 2018)

B1: Activin A (protein, UniProt P08476 311-426, looked up)
Inhibin beta A chain: GLECDGKVNICCKKQFFVSFKDIGWNDWIIAPSGYHANYCEGECPSHIAGTSGSSLSFHSTVINHYRMRGHSPFANLKSCCVPTKLRPMSMLYYDDGQNIIKKDIQNMIVEECGCS
modifications: Inhibin beta A chain
notes: growth factor (Peprotech) used to induce definitive endoderm differentiation of hESCs

Key:
human H1 ES cells [1] = test system: human H1 ES cells
Protocol: Undifferentiated human H1 ES cells were maintained in monolayer culture on Matrigel (BD Biosciences, 354277) in mTeSR1 medium (Stemcell Technologies, 05850) at 37° C. with 5% CO2. Cells were manually passaged at 1:4 to 1:6 split ratios every 3 to 5 days. For hepatic differentiation, we established a serum-free protocol based on previously described protocols with minor modifications^8, 9. Briefly, H1 cells were cultured for 3 days in RPMI/B27 medium (Insulin minus, Gibco, A18956-01) supplemented with 100 ng/ml Activin A (Peprotech, A120-14E), followed by 4 days with 20 ng/ml BMP2 (Peprotech, 120-02) and 30 ng/ml FGF-4 (Peprotech, 100-31) in RPMI/B27 (complete with Insulin, Gibco, 17504-044) medium, then 6 days with 20 ng/ml HGF (Peprotech, 100-39) and KGF (Peprotech, 100-19) in RPMI/B27 (complete with Insulin), then 8 days with 20 ng/ml Oncostatin-M (R&D Systems, 295-OM/CF) in Hepatocyte Culture Media (Lonza, cc-3198) supplemented with SingleQuots (without EGF). Immunofluorescence staining.
Single cell qPCR was performed using a Fluidigm C1 and BioMark HD as described by the manufacturer. Briefly, a cell suspension of a concentration of 166˜250 K/mL was loaded into a 10-17 μm C1™ Single-Cell Auto Prep IFC chamber (Fluidigm, PN100-5479), and cell capture was performed on the Fluidigm C1™ System. Both the empty wells and doublet-occupied wells were excluded from further analysis. Upon capture, reverse transcription and cDNA pre-amplification were performed using the Ambion Single Cell-to-CT Kit (Life Technologies, PN 4458237) and C1™ Single-Cell Auto Prep Module 2 Kit (Fluidigm, PN100-5519). The pre-amplified products were diluted 10-fold prior to analysis with TaqMan® Gene Expression Master Mix (Life Technologies, 4369016) and inventoried TaqMan® Gene Expression assays (20×, Applied Biosystems) in 96.96 dynamic Arrays™ on a BioMark System (Fluidigm). Inventoried TaqMan primers were used for single-cell qPCR. Relative expression was calculated as described in Buganim et al., 2012^22 except that a Ct value of 25 was used for low expressed genes. Relational network plots (mdsquish) were implemented as part of glbase^21 and will be described in detail elsewhere. Briefly, the normalized Euclidean distance between all cells was measured for singular value decomposed principal components 2, 3, 4 and 5. A network was then constructed using a threshold of 0.92 for weak links (dotted lines) and 0.99 for strong links (solid lines) with a maximum of the 50 best scoring edges per node, the network was then laid out using graphviz ‘neato’ layout. Node sizes are 2^[relative expression].
Culturing condition during differentiation is as follows. Nearly 50% confluent undifferentiated human H1 ES cells obtained from ATCC were passaged by Accutase 24 hr after seeding, cells were almost 90% confluent at 37° C. with 5% CO2. Then H1 cells were cultured for 3 days in RPMI/B27 medium (Insulin minus) supplemented with 100 ng/ml Activin A in the presence of 2 μM Repsox or not.
TGFβ-signaling inhibitor RepSox was added with a final concentration of 2 μM at day 0 from the start of differentiation of hESCs.
Expression of various markers of definite layer type cells, i.e., SOX1/PAX6 (ectoderm markers), GATA2/BMP4 (mesoderm markers), and SOX17/FOXA2 (endoderm markers) were tested during differentiation to evaluate the differentiated cells.

human H1 ES cells [2] = assay: Bulk real-time qRT-PCR of marker genes in Activin A induced hESCs; assay type: cell-based
Protocol: Immunofluorescence staining.
Total RNA was extracted using the Trizol reagent (MRC, TR1187) and 2 μg of total RNA was reverse-transcribed using the ReverTraAce Kit (TOYOBO, 34520B1). The product (cDNA) was properly diluted and used as PCR template. PCR reactions were performed with the SYBR®Premix Ex Taq™ Kit (TAKARA, RR420A) on the CFX96 Touch™ Real-Time PCR Detection System (Bio-Rad). GAPDH was used as the internal control. Three to four biological replicates were performed for each assay and data represents mean±SD.
Culturing condition during differentiation is as follows.

H1-derived cells = conditions: day 3 cells induced by Activin A in the presence of RepSox, compared to DE cells
Description: Scratch assay was used to determine the migration activity of H1-derived cells. Briefly, cells in a confluent monolayer were scratched with a needle to form a cell-free zone into which cells at the edges of the wound can migrate. The denuded area was imaged to measure the boundary of the wound at pre-migration. Images of cell movement were captured at regular intervals within a 24-48 hr period for data analysis.

TGFβ = assay: ELISA of TGFβ protein in Activin A stimulated H1 cell culture media; assay type: cell-based, human; conditions: day 3 cells, Activin A (FIG. 4A)
Protocol: The protein level of TGFβ in the Activin A stimulated H1 cell culture media was determined with an ELISA Kit (R&D Systems, DB100B) as described by the manufacturer.

Molecule	endoderm marker expression (human H1 ES cells [1]; Example 1: 100 ng/ml Activin A, 2 μM RepSox, 3 days (FIG. 4B-E))	ectodermal markers SOX1 and PAX6 (human H1 ES cells [1]; RepSox treated cells, day 3 (FIG. 4C))	EMT and formation of DE (human H1 ES cells [1]; day 3, Activin A treated hESCs, RepSox added, single cell-qPCR (FIG. 4C))	expression of POU5F1 and NANOG (human H1 ES cells [1]; day 3 Activin A cells treated with RepSox (FIG. 4C))	expression of CDH1 and SOX2 (human H1 ES cells [1]; day 3 Activin A cells treated with RepSox, compared with hESCs (FIG. 4C))	induction of SOX17 expression (human H1 ES cells [1]; day 3 Activin A-treated cells (FIG. 4C))	expression of CDH1 (human H1 ES cells [2]; qRT-PCR (FIG. 4D))	expression of CDH2, SNAI1, SNAI2, ZEB1, KLF8 and VIM (human H1 ES cells [2]; qRT-PCR (FIG. 4D))	expression of mesendoderm/endoderm markers GSC, EOMES, MIXL1, SOX17, FOXA2, GATA4, GATA6, HHEX and LGR5 (human H1 ES cells [2]; qRT-PCR (FIG. 4D))	other lineage markers PAX6, GATA2, BMP4 and GATA3 (human H1 ES cells [2]; qRT-PCR (FIG. 4D))	migration ability of day 3 cells (H1-derived cells)	TGFB1 gene expression (human H1 ES cells [2]; qRT-PCR, day 3 (FIG. 6))	TGFβ protein in the culture media (TGFβ)
Cc1cccc(-c2[nH]ncc2-c2ccc3ncccc3n2)n1 [RepSox]	no endoderm marker is expressed	slightly induced	not only blocked the EMT but also the formation of DE	continued to express POU5F1 and NANOG	maintained the expression of CDH1 and SOX2 at the same level as hESCs	blocked its induction completely	maintaining the expression of CDH1	blocked the expression	blocked the expression of mesendoderm/endoderm markers	mildly up-regulated	less motile		
B1												robust activation	1.5 ng/mL
